Experimental data reported in patent US11667630B2, “Nitrogen-containing 6-membered cyclic compound” (Asahi Kasei Pharma Corporation, priority 2017, dated 2023).

Columns and labels:
human EP4 receptor = human EP4 receptor (Homo sapiens, UniProt P35408); experiment: Receptor binding test, [3H]PGE2 binding inhibition, EP4; set-up: purchased Merck Millipore HTS142M; details: [3H]PGE2 1.24 nmol/L, membrane fraction HTS142M, 25°C 60 minutes
Description: In order to evaluate selectivity to each EP receptor subtype, [^3H]PGE2 binding-inhibition activities of test compounds for cell membranes on which human EP2, human EP3, and human EP4 receptors were stably expressed were measured.
As the membrane fractions of the prostaglandin E receptors EP2, EP3, and EP4, 10.0 μg protein/tube each of HTS185M, HTS092M, and HTS142M of Merck Millipore were used, respectively. Each membrane fraction was incubated with a reaction mixture (250 μL/tube) containing a test compound and [3H]PGE2 at 25° C. for 60 minutes. […] After the reaction, the membrane fraction was collected on filter paper by using a cell harvester, the filter paper was transferred to a measurement vial, and the measurement was performed on a liquid scintillation counter.
The nonspecific binding was determined as binding observed in the presence of excess amount (10 μM) of unlabeled PGE2. The measurement of the [3H]PGE2 binding-inhibiting activity of a test compound was performed by adding the test compound at various concentrations. The following buffers were used for the reaction.
Buffer for EP4: 50 mmol/L HEPES-NaOH (pH7.4) containing 5 mmol/L MgCl2, 1 mmol/L CaCl2), and 0.2% BSA

[1] = test system: dog lumbar vertebrae posterolateral fixation model; experiment: Bone union-promoting action in dog lumbar vertebrae posterolateral fixation model; format: in vivo; details: twelve weeks after operation; for Continuity score based on soft X-ray image (Mean ± SD): grades 0 to 3 per Table 9; for Manual evaluation of bone union: beagle dogs, microspheres containing compound of Example 23 mixed with autologous bone graft, animals with union/5
Description: In order to investigate a bone union-promoting action in the spinal fusion of the compounds of the present invention, influence of mixing of microspheres containing a test compound at the time of autologous bone grafting was confirmed by using a lumbar vertebrae posterolateral fixation model.
Twelve to thirteen months old male beagle dogs ([…] LABES) were anesthetized by administration of a 1:1 mixture of ketamine hydrochloride (Ketalar 500 mg, Daiichi Sankyo Propharma Co., Ltd.) and xylazine (Selactar 2% Injection, Bayer Yakuhin, Ltd.) at a dose of about 0.5 mL/kg, and Japanese Pharmacopoeia-listed isoflurane (Elucaine, produced by Mylan Pharmaceutical) was inhaled with an inhaler IMPAC6 (VetEquip Inc.) to maintain the anesthesia. The animal was fixed in the prone position, hair of a wide area over the right and left spina iliaca posterior superiors, part around iliac crest, and lower back was shaved, and disinfection treatment was performed with povidone-iodine listed in Japanese Pharmacopoeia (Isodine solution for animals, 20 mg of povidone-iodine listed in Japanese Pharmacopoeia in 1 mL, Meiji Seika Pharma) and ethanol for disinfection (Wako Pure Chemical Industries). […] About 2 g each of the right and left iliums were extracted by using a rongeur and bone scissors, and astriction was performed. The collected ilium, from which the soft tissues were removed, was finely broken with bone scissors, and thereby made into chips of 1 mm size to obtain 2 g each of bone grafts for right and left. Then, the skin was dissected along the spinous processes of lower back with a scalpel, the left and right lumbodorsal fascias were dissected, and then the transverse processes of the fourth and fifth lumbar vertebrae were exposed while the multifidus muscle and longissimus muscle were separated and dissected between the fascias thereof. The soft tissues adhering to the transverse processes were removed, and then decortication of the cortical bone on the surface of the transverse processes was performed with an electric drill (OS-40MV2, Osada Electric Co., Ltd.) to prepare a bone graft bed. The bone graft (2 g) prepared above was sufficiently mixed with a microsphere suspension obtained by suspending microspheres containing a test compound (compound of Example 23) in an amount corresponding to 10, 30, or 100 μg of the test compound (prepared according to the method of Preparation Example 1) in 800 μL of a CMC solution, embedded and grafted on the transverse processes of the fourth and fifth lumbar vertebrae, and the bone graft bed between the transverse processes. After the autologous bone grafting, the lumbodorsal fascia, subcutaneous tissues, and skin were sutured, and the surgical site was disinfected. Twelve weeks after the operation, the animals were euthanized with overdose (30 mg/kg) of sodium pentobarbiturate (Somnopentyl, Kyoritsuseiyaku Corporation), and then the lumbar vertebrae were extracted. Bone union was judged by manually confirming movability of the fourth and fifth lumbar vertebrae (manual palpation) under blinding, and soft X-ray images were obtained from one direction by using Softex M-60 (Softex). The test was performed with the groups each consisting of 5 animals.

human EP4 receptor, sequence (P35408 whole entry): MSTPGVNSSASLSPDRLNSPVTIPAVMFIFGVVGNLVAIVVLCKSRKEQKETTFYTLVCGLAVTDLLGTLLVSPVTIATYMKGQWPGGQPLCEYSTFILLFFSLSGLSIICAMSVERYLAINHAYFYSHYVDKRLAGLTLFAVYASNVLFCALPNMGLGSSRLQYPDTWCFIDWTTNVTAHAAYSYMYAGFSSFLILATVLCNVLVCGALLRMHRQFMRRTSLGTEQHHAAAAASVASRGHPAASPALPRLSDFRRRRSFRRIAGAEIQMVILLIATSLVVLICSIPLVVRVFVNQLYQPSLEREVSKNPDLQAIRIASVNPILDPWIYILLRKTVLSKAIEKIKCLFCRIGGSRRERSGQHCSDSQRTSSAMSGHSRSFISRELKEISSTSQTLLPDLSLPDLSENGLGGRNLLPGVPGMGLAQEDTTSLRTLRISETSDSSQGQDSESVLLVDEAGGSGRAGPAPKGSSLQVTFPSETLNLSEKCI

IC50 (human EP4 receptor): 4.35 nM
Compound: O=C(O)c1ccc(CCN2C(=O)SCCN2CC[C@@H](O)Cc2cccc(C#Cc3ccsc3)c2)s1 [Example 23, (S)-5-(2-(4-(3-Hydroxy-4-(3-(thiophen-3-ylethynyl)phenyl)butyl)-2-oxo-1,3,4-thiadiazinan-3-yl)ethyl)thiophene-2-carboxylic acid]
Continuity score based on soft X-ray image (Mean ± SD) ([1]; 10 μg/site): 2.4 ± 0.5
Continuity score based on soft X-ray image (Mean ± SD) ([1]; 30 μg/site): 2.6 ± 0.5
Continuity score based on soft X-ray image (Mean ± SD) ([1]; 100 μg/site): 2.8 ± 0.4
Manual evaluation of bone union ([1]; 10 μg/site): 4/5
Manual evaluation of bone union ([1]; 30 μg/site): 4/5
Manual evaluation of bone union ([1]; 100 μg/site): 4/5
